Values after ≈ are worked out from the molar mass of the structure shown.
What was measured:
Fusarium oxysporum f.sp = experiment: Minimal inhibitory concentration on agar plates containing natamycin (agar diffusion method); format: cell-based, Fusarium oxysporum f. sp. cubense; conditions: spores grown on agar plates with different natamycin concentrations, no visible growth
Protocol: (§1) The minimal inhibition concentration of these moulds or the minimal effective amount of the antifungal compound was determined using the agar diffusion method, which is well known in the art. Mould spores were grown on agar plates containing different concentrations of natamycin. The concentration of natamycin on which no visible growth could be observed was considered as the minimal inhibitory concentration (MIC) for that particular mould strain.

[1] = cited from earlier work
M. fijensis = experiment: Minimal inhibitory concentration on agar plates containing natamycin (agar diffusion method); format: cell-based, Mycosphaerella fijiensis; conditions: Pseudocercospora fijiensis; spores grown on agar plates with different natamycin concentrations; no visible growth
Protocol: as §1

most fungi = conditions: general background statement; cited from earlier work

Compound: C[C@@H]1C/C=C/C=C/C=C/C=C/[C@H](O[C@@H]2O[C@H](C)[C@@H](O)[C@H](N)[C@@H]2O)C[C@@H]2O[C@](O)(C[C@@H](O)C[C@H]3O[C@@H]3/C=C/C(=O)O1)C[C@H](O)[C@H]2C(=O)O [natamycin]
- MIC (Fusarium oxysporum f.sp): 3 to 7 µg/mL (≈ 4.51 to 10.5 µM)
- solubility in water [1]: 30-50 ppm
- MIC (M. fijensis): 3 to 7 µg/mL (≈ 4.51 to 10.5 µM)
- MIC (Minimal Inhibition Concentration) of most fungi (most fungi): less than 20 ppm
